One data set has as its target T1, MGlcR (Paracoccus denitrificans, UniProt A1BAC0).
T1 construct: gene Pden_4400; Ni-NTA purified
T1 sequence (A1BAC0 1-269): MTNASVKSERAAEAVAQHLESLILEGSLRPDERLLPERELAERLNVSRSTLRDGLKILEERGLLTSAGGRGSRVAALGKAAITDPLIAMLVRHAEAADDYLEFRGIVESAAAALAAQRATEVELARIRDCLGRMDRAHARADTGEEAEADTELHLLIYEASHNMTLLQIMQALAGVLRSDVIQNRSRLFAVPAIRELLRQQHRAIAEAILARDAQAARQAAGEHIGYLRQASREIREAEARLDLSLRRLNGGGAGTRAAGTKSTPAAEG
Put plainly: fluorescence polarization, effector titration of 6FAM-Pglc-MGlcR complex. As to conditions: 0.1-100 mM effector, 750 nM MGlcR, 10 nM Pglc; pH 7.5, room temperature; effector decreasing DNA binding. For orientation: In fluorescence polarisation assays a small probe gives low polarisation when free and higher when bound to something large.

A further data set deals with T2, GlcR (Paracoccus denitrificans, UniProt A1BAC0).
T2 construct: gene Pden_4400; full length, pET16b His tag (cutting not mentioned), E. coli BL21 AI; Ni-NTA and size exclusion
T2 sequence (A1BAC0 1-269): T1 sequence (A1BAC0 1-269)
Put plainly: EMSA of Pglc DNA-GlcR complex with effector. As to conditions: 0.5-2 mM effector; pH 7.0, 37 °C; effector decreasing DNA binding.

The target in another data set is T3, BhcR (Paracoccus denitrificans, UniProt A1B8Z4).
T3 construct: full length, pET16b His tag (cutting not mentioned), E. coli BL21 AI; Ni-NTA and size exclusion
Put plainly: EMSA of Pbhc DNA-BhcR complex with effector. The format is binding. To be noted: 0.1-5 mM effector, pH 7.0, 37 °C. (A gel shift assay detects complexes by their altered migration in electrophoresis.)

The target of data set [1] is T4, GlcR (Paracoccus denitrificans DSM 413) (UniProt A1BAC0).
T4 sequence: T1 sequence (A1BAC0 1-269)
Put plainly: EMSA. To be noted: EMSA: 20 mM K phosphate pH 7.0, 1 mM DTT, 5 mM MgCl2, 50 mM KCl, 15 ug/mL BSA, 50 ug/mL herring sperm DNA, 5% glycerol, 0.1% Tween20, DNA 0.025 pM, 37 C ….

Data set [2] addresses T5, MGlcR (MBP-GlcR) (Paracoccus denitrificans DSM 413) (UniProt A1BAC0).
T5 sequence: T1 sequence (A1BAC0 1-269)
Put plainly: fluorescence polarization.

Data set [3] has as its target BhcR (Paracoccus denitrificans DSM 413) (UniProt A1B8Z4). Put plainly: EMSA. To be noted: EMSA: 20 mM K phosphate pH 7.0, 1 mM DTT, 5 mM MgCl2, 50 mM KCl, 15 ug/mL BSA, 50 ug/mL herring sperm DNA, 5% glycerol, 0.1% Tween20, DNA 0.025 pM, 37 C ….
Setting [4] is: effector increasing DNA binding.
The mark [5] stands for this setting: EMSA: 20 mM K phosphate pH 7.0, 1 mM DTT, 5 mM MgCl2, 50 mM KCl, 15 ug/mL BSA, 50 ug/mL herring sperm DNA, 5% glycerol, 0.1% Tween20, DNA 0.025 pM, 37 C ….

This is an account of results in paper PMC11323563, “Multiple levels of transcriptional regulation control glycolate metabolism in Paracoccus denitrificans” (mBio, 2024).

T3 sequence (A1B8Z4 whole entry): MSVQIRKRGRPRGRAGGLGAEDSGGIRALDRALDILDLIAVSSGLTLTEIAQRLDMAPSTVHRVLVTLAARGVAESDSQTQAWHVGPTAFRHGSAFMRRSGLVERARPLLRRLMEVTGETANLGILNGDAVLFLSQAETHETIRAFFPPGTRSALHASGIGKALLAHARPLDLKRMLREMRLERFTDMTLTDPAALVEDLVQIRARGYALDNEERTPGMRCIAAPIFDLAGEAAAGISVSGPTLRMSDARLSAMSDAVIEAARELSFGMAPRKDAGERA
BhcR (Paracoccus denitrificans DSM 413), sequence (A1B8Z4 whole entry): as above

For the molecule `O=C(O)CO` [glycolate], the “fluorescence polarization, effector titration of 6FAM-Pglc-MGlcR complex” value on MGlcR is reported as “Titration of the Pglc-MGlcR complex with increasing concentrations of glycolate demonstrated a notable decrease in binding”. The “EMSA of Pglc DNA-GlcR complex with effector” value at GlcR was “DNA binding was decreased in the presence of glycolate”.
As to `O=CC(=O)O` [glyoxylate], the “EMSA of Pbhc DNA-BhcR complex with effector” value (“EMSA of Pbhc DNA-BhcR complex” below) at BhcR (effector decreasing DNA binding) is “the interaction of BhcR with Pbhc was negatively affected by increasing concentrations of glyoxylate”.
In the case of `O=C(O)C(=O)O` [oxalate], the “EMSA of Pbhc DNA-BhcR complex” value on BhcR (setting [4]) is “the DNA-binding interaction was positively affected by the presence of pyruvate or oxalate”.
For the molecule `CC(=O)C(=O)O` [pyruvate], at BhcR (setting [4]), the “EMSA of Pbhc DNA-BhcR complex” value is “the DNA-binding interaction was positively affected by the presence of pyruvate or oxalate”.
Regarding “CAAGCTCTCCTCCCTTGGTCGAACGGCAGGCCCGTGTCCTGCCCTGCATTCTTGGTATAATTTTCAGACCACATTAGTCAATCGGTATTTTTCTGGACCGACACGCCCGTCCTGTGCTTACATGGCAGGGATCCGACAACCGCATGAGCGCCCATG (double strand) [Pglc 156 bp]”, the binding result in data set [1] is “binds”.
As to “GCTCTCCTCCCTTGGTCGAACGGCAGGCCCGTGTCCTGCCCTGCATTCTTGGTATAATTTTCAGACCACATTAGTCAATCGGTATTTTTCTGGACCGACACGCCCGTCCTGTGCTTACATGGCAGGGATCCGACAACCGCATGAGCGCCC (double strand) [[6FAM]-Pglc]”, in data set [2] (setting [5]), the Kd (as a rule, a measure of binding affinity in units of concentration) is 225 nM and the binding result is recorded as “binds”.
“GGAATGAAGATCGGGTTCTGGCTGGTCATGGCAATTCCTCCTGCGCTTGTGGACCAAGCTACGTTTTGCTGTCCATTGATGCAATTTTTCTGAAAAATATTTCGCAATCGCGGAAAAATGACCTAAAGTGTCGTGGAATCAGATCGTTGCTCTTTTCCAAAGCCAAAGAGTGATTTTCAACAAACTCAGAAAGTTGTCGAAAGGAAAAATTGAATGTCGGTTCAAATCCGCAAAAGGG (double strand) [Pbhc 238 bp]”: in data set [3], the binding result is on record as “binds”.
Molecule [6FAM]-Pglc gave a Kd in data set [2] (10 nM DNA) of 225 nM.
